The target in one test is T1, CYP4A (Homo sapiens, UniProt Q02928).
T1 construct: purchased; host or cells: bacterial membranes ('bactosome')
T1 sequence (Q02928 5-519): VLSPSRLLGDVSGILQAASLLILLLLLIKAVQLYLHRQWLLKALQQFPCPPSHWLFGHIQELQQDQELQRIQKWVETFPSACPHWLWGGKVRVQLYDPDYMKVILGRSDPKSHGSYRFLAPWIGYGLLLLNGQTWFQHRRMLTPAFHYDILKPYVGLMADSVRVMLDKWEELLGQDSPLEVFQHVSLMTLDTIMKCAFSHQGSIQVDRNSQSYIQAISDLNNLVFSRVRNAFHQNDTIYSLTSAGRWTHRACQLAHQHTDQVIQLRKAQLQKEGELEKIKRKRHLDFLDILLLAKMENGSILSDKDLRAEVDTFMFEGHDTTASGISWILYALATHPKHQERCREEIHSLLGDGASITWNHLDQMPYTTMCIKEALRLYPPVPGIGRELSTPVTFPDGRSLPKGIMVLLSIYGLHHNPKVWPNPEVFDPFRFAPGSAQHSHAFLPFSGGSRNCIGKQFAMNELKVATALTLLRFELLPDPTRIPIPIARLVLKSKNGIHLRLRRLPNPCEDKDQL
Kind of test: CYP4A enzyme assay (luminescence, Luciferin-ME). The conditions noted are these: Compound concentration 5 μM; 50%-70%; read-out: % Inhibition 50%-70%. It counts as biochemical. An outline of the steps: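 Compounds (5 μM) were preincubated 15 min at room temperature with CYP4A bactosomes in 100 mM KPO4, 0.1% BSA, 1 mM DTT. Reaction ran 30 min at room temperature after adding 5 mM Luciferin-ME and NADPH regeneration system. Luminescence after 15 min with detection reagent; inhibition judged by comparing well signals.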
In general, inhibition refers to the change of the read-out against control, counted positive when it falls. Take `O=C(c1ccccc1)N1CCCC(C(=O)N2CCN(c3ccnc4ccccc34)CC2)C1` (centres unmarked) [Example 113, (1-benzoylpiperidin-3-yl)(4-(quinolin-4-yl)piperazin-1-yl)methanone]: the inhibition at 5 µM is 50 to 70%.
Regarding `O=C(C1CN(S(=O)(=O)c2ccc(Br)cc2)C1)N1CCN(c2ccnc3cc(F)ccc23)CC1` [Example 68, (1-((4-bromophenyl)sulfonyl)azetidin-3-yl)(4-(7-fluoroquinolin-4-yl)piperazin-1-yl)methanone], the inhibition at 5 µM was 50 to 70%.
For the compound `O=C(C1CCCN(C(=O)C2CCCCC2)C1)N1CCN(c2ccnc3cc(F)ccc23)CC1` (centres unmarked) [Example 108, (1-(cyclohexylcarbonyl)piperidin-3-yl)(4-(7-fluoroquinolin-4-yl)piperazin-1-yl)methanone], the inhibition at 5 µM was 50 to 70%.
Turning to `Cc1cc(N2CCN(C(=O)C3CCCN(C(=O)c4ccccc4)C3)CC2)c2ccccc2n1` (centres unmarked) [Example 102, (1-benzoylpiperidin-3-yl)(4-(2-methylquinolin-4-yl)piperazin-1-yl)methanone], the inhibition at 5 µM is 50 to 70%.
For `Cc1cc(N2CCN(C(=O)C3CCCN(S(=O)(=O)c4cccnc4)C3)CC2)c2ccccc2n1` (centres unmarked) [Example 125, (4-(2-methylquinolin-4-yl)piperazin-1-yl)(1-(pyridin-3-ylsulfonyl)piperidin-3-yl)methanone], the inhibition at 5 µM lay in the range of 50 to 70%.
On the same count and under the same terms, as for `O=C(C1CCCN(S(=O)(=O)c2ccco2)C1)N1CCN(c2ccnc3cc(Cl)ccc23)CC1` (centres unmarked) [Example 123, (4-(7-chloroquinolin-4-yl)piperazin-1-yl)(1-(furan-2-ylsulfonyl)piperidin-3-yl)methanone], the figure is 50 to 70%; as for `Cn1cnnc1CN1CC[C@H](C(=O)N2CCN(c3ccnc4cc(F)ccc34)CC2)C1` [Example 154, (S)-(4-(7-fluoroquinolin-4-yl)piperazin-1-yl)(1-((4-methyl-4H-1,2,4-triazol-3-yl)methyl)pyrrolidin-3-yl)methanone], 50 to 70%.

Staying with this test, now noted: Compound concentration 5 μM; 70%-90%; read-out: % Inhibition 70%-90%.
Turning to `O=C(C1CCCN(S(=O)(=O)C2CCCCC2)C1)N1CCN(c2ccnc3cc(F)ccc23)CC1` (centres unmarked) [Example 117, (1-(cyclohexylsulfonyl)piperidin-3-yl)(4-(7-fluoroquinolin-4-yl)piperazin-1-yl)methanone], the inhibition at 5 µM lay within 70 to 90%.
Take `CC(=O)Nc1ccc(C(=O)N2CCCC(C(=O)N3CCN(c4ccnc5cc(F)ccc45)CC3)C2)cc1` (centres unmarked) [Example 105, N-(4-(3-(4-(7-fluoroquinolin-4-yl)piperazine-1-carbonyl)piperidine-1-carbonyl)phenyl)acetamide]: the inhibition at 5 µM lay in the range of 70 to 90%.
`Cc1nn(C)c(C)c1S(=O)(=O)N1CC[C@H](C(=O)N2CCN(c3ccnc4ccccc34)CC2)C1` [Example 151, (S)-(4-(quinolin-4-yl)piperazin-1-yl)(1-((1,3,5-trimethyl-1H-pyrazol-4-yl)sulfonyl)pyrrolidin-3-yl)methanone]: the inhibition at 5 µM lay within 70 to 90%.
`O=C(C1CCCN(S(=O)(=O)c2ccc(F)cc2)C1)N1CCN(c2ncnc3ccccc23)CC1` (centres unmarked) [Example 76, (1-((4-fluorophenyl)sulfonyl)piperidin-3-yl)(4-(quinazolin-4-yl)piperazin-1-yl)methanone]: the inhibition at 5 µM fell in the range of 70 to 90%.
The same measure, in the same setting: under `O=C([C@H]1CCN(S(=O)(=O)c2ncn[nH]2)C1)N1CCN(c2ccnc3c(F)cccc23)CC1` [Example 138, (S)-(1-((1H-1,2,4-triazol-5-yl)sulfonyl)pyrrolidin-3-yl)(4-(8-fluoroquinolin-4-yl)piperazin-1-yl)methanone] stands 70 to 90%.

The same test, now with this note: Compound concentration 5 μM; Greater than 90%; read-out: % Inhibition Greater than 90%.
Regarding `CC(=O)Cn1cnc(S(=O)(=O)N2CC[C@H](C(=O)N3CCN(c4ccnc5cc(F)ccc45)CC3)C2)n1` [Example 142, (S)-1-(3-((3-(4-(7-fluoroquinolin-4-yl)piperazine-1-carbonyl)pyrrolidin-1-yl)sulfonyl)-1H-1,2,4-triazol-1-yl)propan-2-one], the inhibition at 5 µM is greater than 90%.
The same measure, in the same setting: under `O=C(c1ncn[nH]1)N1CC[C@H](C(=O)N2CCN(c3ccnc4cc(F)ccc34)CC2)C1` [Example 161, (S)-(1-(4H-1,2,4-triazole-3-carbonyl)pyrrolidin-3-yl)(4-(7-fluoroquinolin-4-yl)piperazin-1-yl)methanone] stands greater than 90%.
As to `CC(=O)Nc1ccc(S(=O)(=O)N2CCC(C(=O)N3CCN(c4ccnc5ccccc45)CC3)C2)cn1` (centres unmarked) [Example 30, N-(5-((3-(4-(quinolin-4-yl)piperazine-1-carbonyl)pyrrolidin-1-yl)sulfonyl)pyridin-2-yl)acetamide], the inhibition at 5 µM was greater than 90%.
Regarding `O=C([C@@H]1CCN(S(=O)(=O)c2ncc[nH]2)C1)N1CCN(c2ccnc3cc(F)ccc23)CC1` [Example 147, (R)-(1-((1H-imidazol-2-yl)sulfonyl)pyrrolidin-3-yl)(4-(7-fluoroquinolin-4-yl)piperazin-1-yl)methanone], the inhibition at 5 µM was greater than 90%.
Still for that read-out and setting: under `COCCn1ccnc1S(=O)(=O)N1CC[C@H](C(=O)N2CCN(c3ccnc4cc(F)ccc34)CC2)C1` [Example 149, (S)-(4-(7-fluoroquinolin-4-yl)piperazin-1-yl)(1-((1-(2-methoxyethyl)-1H-imidazol-2-yl)sulfonyl)pyrrolidin-3-yl)methanone] stands greater than 90%; under `O=C(C1CCN(S(=O)(=O)c2ccc(-c3ccncc3)cc2)C1)N1CCN(c2ccnc3cc(F)ccc23)CC1` (centres unmarked) [Example 17, (4-(7-fluoroquinolin-4-yl)piperazin-1-yl)(1-((4-(pyridin-4-yl)phenyl)sulfonyl)pyrrolidin-3-yl)methanone], greater than 90%; under `Cn1ccnc1S(=O)(=O)N1CCCC(C(=O)N2CCN(c3ccnc4cc(F)ccc34)CC2)C1` (centres unmarked) [Example 118, (4-(7-fluoroquinolin-4-yl)piperazin-1-yl)(1-(1-methyl-1H-imidazol-2-ylsulfonyl)piperidin-3-yl)methanone], greater than 90%.
On the same count and under the same terms, under `Cn1cncc1S(=O)(=O)N1CCC(C(=O)N2CCN(c3ccnc4cc(F)ccc34)CC2)C1` (centres unmarked) [Example 14, (4-(7-fluoroquinolin-4-yl)piperazin-1-yl)(1-((1-methyl-1H-imidazol-5-yl)sulfonyl)pyrrolidin-3-yl)methanone] stands greater than 90%; under `O=C([C@H]1CCN(S(=O)(=O)c2ncc[nH]2)C1)N1CCN(c2ccnc3cc(F)ccc23)CC1` [Example 146, (S)-(1-((1H-imidazol-2-yl)sulfonyl)pyrrolidin-3-yl)(4-(7-fluoroquinolin-4-yl)piperazin-1-yl)methanone], greater than 90%; under `CC(=O)Nc1ccc(S(=O)(=O)N2CC(C(=O)N3CCN(c4ccnc5ccccc45)CC3)C2)cc1` [Example 70, N-(4-((3-(4-(quinolin-4-yl)piperazine-1-carbonyl)azetidin-1-yl)sulfonyl)phenyl)acetamide], greater than 90%.
Still for that read-out and setting: under `CC(=O)Nc1nc(C)c(S(=O)(=O)N2CC[C@H](C(=O)N3CCN(c4ccnc5ccccc45)CC3)C2)s1` [Example 49, (S)—N-(4-methyl-5-((3-(4-(quinolin-4-yl)piperazine-1-carbonyl)pyrrolidin-1-yl)sulfonyl)thiazol-2-yl)acetamide] stands greater than 90%; under `O=C(C1CCN(S(=O)(=O)c2ccc(-c3cccc(O)c3)nc2)C1)N1CCN(c2ccnc3ccccc23)CC1` (centres unmarked) [Example 27, (1-((6-(3-hydroxyphenyl)pyridin-3-yl)sulfonyl)pyrrolidin-3-yl)(4-(quinolin-4-yl)piperazin-1-yl)methanone], greater than 90%.
As to `O=C(C1CCN(S(=O)(=O)c2ccc(-c3ccccc3)nc2)C1)N1CCN(c2ccnc3ccccc23)CC1` (centres unmarked) [Example 25, (1-((6-phenylpyridin-3-yl)sulfonyl)pyrrolidin-3-yl)(4-(quinolin-4-yl)piperazin-1-yl)methanone], the inhibition at 5 µM is greater than 90%.
The same measure, in the same setting: under `O=C([C@H]1CCN(S(=O)(=O)c2nccn2CCO)C1)N1CCN(c2ccnc3cc(F)ccc23)CC1` [Example 148, (S)-(4-(7-fluoroquinolin-4-yl)piperazin-1-yl)(1-((1-(2-hydroxyethyl)-1H-imidazol-2-yl)sulfonyl)pyrrolidin-3-yl)methanone] stands greater than 90%; under `O=C(C1CCN(S(=O)(=O)c2ccc(-c3ccncc3)cc2)CC1)N1CCN(c2ccnc3ccccc23)CC1` [Example 64, (1-((4-(pyridin-4-yl)phenyl)sulfonyl)piperidin-4-yl)(4-(quinolin-4-yl)piperazin-1-yl)methanone], greater than 90%; under `O=C([C@@H]1CCN(S(=O)(=O)c2ccc(-c3ccncc3)cc2)C1)N1CCN(c2ccnc3cc(F)ccc23)CC1` [Example 18, (R)-(4-(7-fluoroquinolin-4-yl)piperazin-1-yl)(1-((4-(pyridin-4-yl)phenyl)sulfonyl)pyrrolidin-3-yl)methanone], greater than 90%.
On to `O=C(C1CN(S(=O)(=O)c2ccc(-c3ccncc3)cc2)C1)N1CCN(c2ccnc3cc(F)ccc23)CC1` [Example 69, (4-(7-fluoroquinolin-4-yl)piperazin-1-yl)(1-((4-(pyridin-4-yl)phenyl)sulfonyl)azetidin-3-yl)methanone], for which the inhibition at 5 µM was greater than 90%.

The record behind these values is US12612384B2, “Heterocyclic CYP4A inhibitor compounds and compositions thereof” (MBD CO., LTD., priority 2021, dated 2026).
